Data from patent publication US20250340941A1, “ASSAY AND METHODS FOR DRUG DISCOVERY” (BIOVIE INC., priority 2023, published 2025).

Legend:
[1] = test system: TNFR1 phosphorylation in THP-1 human monocytes; assay: TNFa-stimulated TNFR1 ERK-dependent phosphorylation, Western blot densitometry; type: cell-based; conditions: THP-1, TNFa 50 ng/mL
Description: THP-1 monocytes were treated with 100 nM NE3107, 1 uM IKK-16 (IKK inhibitor), 1 uM Tpl2 Kinase inhibitor (TPL2i) or Vehicle (0.1% DMSO) and stimulated with TNFa 50 ng/mL. Cell lysates were collected at 0, 2, 5, 10, 15, and 30 minutes. The results are given as fold change with respect to the control following Western blotting and quantification of band intensities by densitometry scanning.
THP-1 human monocytes were grown in complete growth medium (ATCC-formulated RPMI-1640 Medium, Catalog No. 30-2001), 2-mercaptoethanol to a final concentration of 0.05 mM and fetal bovine serum to final concentration of 10%. THP-1 human monocytes were then seeded into 10 mL complete growth medium at 0.4×10^6/mL in a T25 flask and were grown to 0.8×10^6/mL in about 1 to 2 days. The cells were then starved in 0.5% FBS RPMI for 16 h. The THP-1 monocytes were then treated with 100 nM 17α-ethynylandrost-5-ene-3ϕ3,7ϕ3,17ϕ3-triol (NE3107), 1 μM IKK-16 (IKK inhibitor), 1 μM Tpl2 Kinase inhibitor (TPL2i) or 0.1% DMSO (vehicle). Cells were stimulated with stimulated with 50 ng/mL TNFa and cell lysates were collected at 0, 2, 5, 10, 15, and 30 minutes after TNFa stimulation. Total cell lysates were subjected to Western blotting as described in Lu et al., Mol. Endocrinol. 22 (2008), 760-771. Relative band intensities were quantified by densitometry scanning. The results are given as fold change with respect to untreated cells in Table 2.

[2] = test system: Horvath Clock DNA methylation (DNAm); assay: Horvath Clock DNA methylation (DNAm) epigenetic analysis of whole blood, 3-month open-label phase 2 study (NCT05007820); type: in vivo, human
Text: NE3107 is an oral small molecule, blood-brain permeable anti-inflammatory insulin sensitizer that binds ERK, inhibits NFKB and TNF signaling, and is in clinical studies for Probable AD (NCT04669028) and Parkinson's disease (NCT05083260). Safety, clinical, biomarker and neuroimaging results from a 3-month open-label phase 2 study of NE3107 treatment of MCI and probable AD (NCT05007820) were reported at CTAD (2022 J. Prev. Alzheimers Dis 9 S86, S140 and S27). In this example, the inventors determined the results of epigenetic clock studies from NCT05007820.
Methods: Subjects with clinical dementia rating (CDR) 0.5-1 were consented, and whole blood was drawn, frozen and shipped for Horvath Clock DNA methylation (DNAm) epigenetic analysis (Horvath 2018 Aging 10:1758) at baseline and 3 months.
(§1) Result: The subject's SkinBloodAge clock closely matched their chronological age at baseline (mean 71.5 vs 70.8 years). After 3 months of NE3107 (20 mg BID), the SkinBloodAge decreased by a mean of 3.3 years (Table). […] Leptin is reportedly lower in AD, and DNAmLeptin is reported to be positively correlated with metabolic parameters waist/hip ratio, BMI, CRP, insulin, glucose and triglycerides (Lu 2022 Aging 14:9884). […] DNAmPack Years is reported to be negatively correlated with time to mortality in both smokers and nonsmokers, and positively correlated with waist/hip ratio, CRP and triglycerides. Monocyte DNAm was correlated with monocyte frequency at baseline, and although it is reported to increases with chronological age, it decreased (−29%) in 77% of subjects after 3 months treatment. […]

Monocytes = assay: Blood monocyte frequency, 3-month open-label phase 2 study; type: in vivo, human
Description: as §1

[3] = Phase 3 trial (NM101, NCT04669028): metabolic changes, blinded assessment; type: in vivo, human
Text: In this example, the clinical outcomes from a Phase 3, randomized, placebo-controlled trial of NE3107 (17α-ethynylandrost-5-ene-3ϕ3,7ϕ3,17ϕ3-triol) in subjects with mild to moderate probable Alzheimer's disease.
Recently, the roles of inflammation and insulin resistance in neurodegeneration have become better appreciated. […] We describe the rationale and design of NM101, the first randomized, multicenter Phase III clinical study to examine the safety and efficacy of 30-week treatment with NE3107 versus placebo in elderly adults with mild-to-moderate Alzheimer's disease. Patients (316) will be randomized in a 1:1 ratio. The co-primary end points measure cognitive function and functional and behavioral characteristics (Clinical Dementia Rating Scale Sum of Boxes, CDR-SB) and cognitive function (ADAS Cog12). Trial registration number: NCT04669028 (Clinicaltrials.gov).
Subjects metabolic and correlation changes were analyzed. Many of the genes associated with LOAD (late onset Alzheimer's disease) are related to cholesterol metabolism, which is decreased in AD neuron membranes. Insulin and glycemic controls are known to be involved in neurodegeneration. […] Increased mean amplitude of glycemic excursion (MAGE from CGM) increased risk of Alzheimer's disease progression. Leptin is an anti-inflammatory, neuroprotective and is decreased in AD. […] The results are described in Tables 4 and 5.

[4] = Phase 3 trial: imaging sub-study vMRI; type: in vivo, human; conditions: Phase 3 imaging sub-study, 23 subjects, blinded analysis; result in words
Description: Subjects were analyzed using imaging sub-studies vMRI on 23 subjects. It was observed that the volume was increased in the hippocampus and amygdala. In addition, it was observed that a decreased CGIC was correlated with decreased hippocampi volume and increased MCP-1 was correlated with increased whole cortex. The results are described in FIGS. 4A-4B and Table 6.

[5] = Phase 3 trial: FDG-PET imaging; type: in vivo, human; conditions: Phase 3, blinded analysis; subjects with a baseline whole cortex suvr <1.29, n/N
Description: Subjects were analyzed using a fluorodeoxyglucose (FDG)-positron emission tomography (PET) imaging scans. FDG-PET standardized uptake value ratios (“suvr”) were increased in 14/24 subjects with a baseline whole cortex suvr <1.29. […] Cholesterol increases trended with increased Cingulate suvr. The results are described in Table 7 and FIG. 5.

[6] = Phase 3 trial: neuropsychiatric inventory; type: in vivo, human; conditions: Phase 3, blinded analysis (NE3107 and placebo not separated)
Description: Subjects were analyzed for neuropsychiatric inventory. […] An improvement in appetite was also correlated with decreased Cog12, CDR SB and ADCOMS, with increased Alzheimer's disease. A decrease in anxiety was correlated with an increase ADL and decreased CGIC. Sleep improvement was correlated with a decrease in CGIC and decreased in TNFa. The results are described in Table 8 and FIGS. 6A-6B.

[7] = Phase 3 trial: adverse events; type: in vivo, human; conditions: blinded (IP or placebo not known)
Text: Of the 439 subjects enrolled in the study, 156 experienced 1 or more AEs (35.5%). There were only 43 (9.8%) related AEs with the majority 42 […] categorized as non-serious AEs by the principal investigator. The study also had very low rate of serious AEs reported. There were 12 (2.7%) reported for the duration of the study. […] As this is a blinded analysis it is not known if the subjects was on IP or placebo.

[8] = After 3 months of NE3107 (20 mg BID), result in words
[9] = After 3 months of NE3107 (20 mg BID), size of decrease
[10] = Blood Cell Frequency, 3 months vs baseline, mean
[11] = Blood Cell Frequency, NE3107 20 mg BID, 3 months, mean
[12] = NE3107 20 mg BID, 3 months vs baseline
[13] = NE3107 20 mg BID, 3 months vs baseline, mean
[14] = NE3107 20 mg BID, 3 months, mean
[15] = NE3107 20 mg BID, 3 months, n/N subjects
[16] = Phase 3, blinded analysis (NE3107 and placebo not separated)
[17] = Phase 3, blinded analysis, result in words

SMILES: O=C(c1ccc(Nc2nccc(-c3cc4ccccc4s3)n2)cc1)N1CCC(N2CCCC2)CC1 [IKKi, IKK-16, reference compound]
- Fold vs DMSO control P-TNFR1/Actin in Gel2 ([1]; 1 μM, 0 min): 2.09 fold
- Fold vs DMSO control P-TNFR1/TNFR1 in Gel2 ([1]; 1 μM, 0 min): 2.92 fold
- Fold vs DMSO control P-TNFR1/Actin in Gel2 ([1]; 1 μM, 15 min): 0.92 fold
- Fold vs DMSO control P-TNFR1/TNFR1 in Gel2 ([1]; 1 μM, 15 min): 0.59 fold
- Fold vs DMSO control P-TNFR1/Actin in Gel2 ([1]; 1 μM, 30 min): 0.49 fold
- Fold vs DMSO control P-TNFR1/TNFR1 in Gel2 ([1]; 1 μM, 30 min): 0.30 fold

SMILES: C#C[C@]1(O)CC[C@H]2[C@@H]3[C@@H](O)C=C4C[C@@H](O)CC[C@]4(C)[C@H]3CC[C@@]21C [NE3107, 17α-ethynylandrost-5-ene-3ϕ3,7ϕ3,17ϕ3-triol]
- DNAmCD4Tcell, Change (%) ([2]; 3 months vs baseline): (18%)
- DNAmCD8Tcell, Change (%) ([2]; 3 months vs baseline): (12%)
- DNAmGranulocyte, Change (%) ([2]; 3 months vs baseline): (2.2%)
- DNAmNKcell, Change (%) ([2]; 3 months vs baseline): (0.5%)
- changes in DNAmT, DNAmNK or DNAmGran [2, 8]: no significant changes
- DNAmPackYears decreased by [2, 9]: 39%
- SkinBloodAge decreased by a mean of [2, 9]: 3.3 years
- DNAmCD4Tcell, Change [2, 10]: −0.033
- DNAmCD8Tcell, Change [2, 10]: −0.002
- DNAmGranulocyte, Change [2, 10]: −0.015
- DNAmNKcell, Change [2, 10]: −0.0003
- DNAmCD4Tcell, 3 Months [2, 11]: 0.152
- DNAmCD8Tcell, 3 Months [2, 11]: 0.013
- DNAmGranulocyte, 3 Months [2, 11]: 0.653
- DNAmNKcell, 3 Months [2, 11]: 0.063
- DNAmPackYears, Change (%) [2, 12]: (39%)
- DNAmSkinBlood, Change (%) [2, 12]: (−4.6%)
- DNAmMonocytes, Change [2, 13]: −0.022 Freq
- DNAmPackYears, Change [2, 13]: −9.4
- DNAmSkinBlood, Change [2, 13]: −3.3 years
- DNAmSkinBlood, 3 Months ([2]; NE3107 20 mg BID, 3 months, MCI/probable AD subjects (CDR 0.5-1), whole blood, mean): 67.5 years
- DNAmMonocytes, 3 Months [2, 14]: 0.054 Freq
- DNAmPackYears, 3 Months [2, 14]: 14.6
- DNAmLeptin, Frequency (subjects with decrease) [2, 15]: 22/22
- DNAmMonocytes, Frequency (subjects with decrease) [2, 15]: 17/22
- DNAmPackYears, Frequency (subjects with decrease) [2, 15]: 21/22
- DNAmSkinBlood, Frequency (subjects with decrease) [2, 15]: 19/22
- change in monocyte frequency (Monocytes; [8]): no significant change
- Monocytes, Change (%) (Monocytes; [12]): (1.5%)
- Monocytes, Change (Monocytes; [13]): −0.001 Freq
- Monocytes, 3 Months (Monocytes; [14]): 0.085 Freq
- Fold vs DMSO control P-TNFR1/Actin in Gel2 ([1]; 100 nM, 0 min): 0.32 fold
- Fold vs DMSO control P-TNFR1/TNFR1 in Gel2 ([1]; 100 nM, 0 min): 0.27 fold
- Fold vs DMSO control P-TNFR1/Actin in Gel2 ([1]; 100 nM, 15 min): 0.79 fold
- Fold vs DMSO control P-TNFR1/TNFR1 in Gel2 ([1]; 100 nM, 15 min): 0.57 fold
- Fold vs DMSO control P-TNFR1/Actin in Gel2 ([1]; 100 nM, 30 min): 0.23 fold
- Fold vs DMSO control P-TNFR1/TNFR1 in Gel2 ([1]; 100 nM, 30 min): 0.17 fold
- HOMA2-% B, Change from Baseline [3, 16]: +13.5%, *
- HOMA2-% S, Change from Baseline [3, 16]: −21.2%, *
- Insulin, Change from Baseline [3, 16]: +1.9 μIU/mL
- Leptin, V10 median [3, 16]: 29.2 ng/mL
- MAGE, Change from Baseline ([3]; Phase 3, blinded analysis (NE3107 and placebo not separated), from CGM): -0.57 mg/dL
- Leptin DNAm [3, 17]: observed to increase
- cases of hypoglycemia [3, 17]: no cases of hypoglycemia
- Cholesterol, Change from Baseline ([3]; Phase 3, mild to moderate probable AD, blinded analysis (NE3107 and placebo subjects not separated)): +3.0 mg/dL
- vMRI volume in the hippocampus and amygdala [4]: increased
- subjects with increased FDG-PET standardized uptake value ratios (suvr) [5]: 14/24
- neuropsychiatric inventory: overall improvement in appetite [6]: −1.0
- neuropsychiatric inventory: overall improvement in sleep [6]: −1.0
- related AEs ([7]; Phase 3, 439 subjects enrolled): 9.8%
- related AEs categorized as non-serious ([7]; Phase 3, 439 subjects enrolled): 0.6%
- serious AEs reported ([7]; Phase 3, 439 subjects enrolled): 2.7%
- subjects discontinued due to a reported AE ([7]; Phase 3, 439 subjects enrolled): 1.8%
- subjects who experienced 1 or more AEs ([7]; Phase 3, 439 subjects enrolled): 35.5%
- serious AEs that resulted in death ([7]; Phase 3, count): 1
